Results: patent US7196110B2, “N-substituted tricyclic 3-aminopyrazoles as inhibitors for the treatment of cell proliferative disorders” (Janssen Phamaceutica N.V., priority 2002, dated 2007)
Like-named read-outs stand apart in the source and are kept apart here.

Molecular target: T1, PDGF-receptor beta enzyme comprising the tyrosine kinase domain (Homo sapiens, UniProt P09619)
T1 construct: from amino acid 545 to 1106 of GenBank Access NO: AAA36427
Test: Inhibition of PDGF-receptor kinase activity (cell-free, PLC1 peptide, 33P Flashplate)
Assay type: biochemical
Conditions: for inhibition at 10 µM: compound at 10 uM, read-out: Percent Inhibition @ 10 uM
Experimental: PDGF-R kinase activity was assayed by its ability to phosphorylate one of its target proteins, PLCγ, in a cell-free system, in particular, a PLC1 peptide comprising the tyrosine residue where the phosphorylation occurs was used for the assay.
10× Kinase Buffer (500 mM Tris-HCl pH=8, 100 mM MgCl2, 1 mM Na3VO4); 10 mM DTT (final concentration at 1 mM in assay); 10 mM ATP (final concentration at 5 μM in assay); ^33P-γ-ATP (Cat. No.: NEG/602H. 2000-3000 Ci/mmol) purchased from NEN; Purified, soluble, recombinant PDGF-receptor beta enzyme comprising the tyrosine kinase domain (from amino acid 545 to 1106 of GenBank Access NO: AAA36427 ) at 0.4 mg/mL; Enzyme Dilution Buffer (50 mM Tris-HCl pH=8.0, 0.1% BSA); Wash/Stop Buffer (PBS +100 mM EDTA); NEN Streptavidin Flashplates (Cat. No.: SMP-103) which binds to the biotinylated PLC1 peptide but not the PDGF-R enzyme; PLC1 peptide (Biotin-[…]-Amide) at 1 mM in 50 mM Tris-HCL with pH of 8.0.
Reagents were first mixed according the following regimen:
The above reaction mixture was dispensed into each well of a Flashplate at 70 μl/well. To test the effect of a compound on PDGF-R kinase activity, the test compound either in a fixed concentration or in serially diluted concentrations in 100% DMSO was added to appropriate wells at 1 μl/well.
Enzyme PDGF-R was diluted in Enzyme dilution buffer as following:
The kinase reaction was initiated by adding 30 μl of diluted PDGF-R enzyme solution to each well on the Flashplate containing hot ATP and PLC1, except wells of column 12 rows E through H, which were used to calculate the plate background. The Flashplate was swirled to mix and was incubated at 30° C. for 60 minutes. Then, the reaction mixture was discarded and the Flashplate was washed 3 times each with 200 μl Wash/Stop Buffer. Subsequently, each well on the Flashplate was filled with 200 μl of Wash/Stop buffer. The amount of ^33P retained in each well was measured using a Packard TopCount after the plate was sealed with a transparent plate sealer.
The percentage of inhibition of the test compound on PDGF-R kinase activity is defined as […].
In order to test the potency of inhibition of present compounds, an IC50 for an individual compound was measured using the above procedure. As used herein, the IC50 for PDGF-R kinase activity refers to the concentration of an inhibitor at which the activity of the PDGF-R kinase is reduced by one-half as compared with reactions containing no inhibitor.

[1] = PDGF-R kinase activity, read-out: IC50
[2] = read-out: IC50 (μM) on PDGF-R kinase activity

T1 sequence (P09619 545-1106): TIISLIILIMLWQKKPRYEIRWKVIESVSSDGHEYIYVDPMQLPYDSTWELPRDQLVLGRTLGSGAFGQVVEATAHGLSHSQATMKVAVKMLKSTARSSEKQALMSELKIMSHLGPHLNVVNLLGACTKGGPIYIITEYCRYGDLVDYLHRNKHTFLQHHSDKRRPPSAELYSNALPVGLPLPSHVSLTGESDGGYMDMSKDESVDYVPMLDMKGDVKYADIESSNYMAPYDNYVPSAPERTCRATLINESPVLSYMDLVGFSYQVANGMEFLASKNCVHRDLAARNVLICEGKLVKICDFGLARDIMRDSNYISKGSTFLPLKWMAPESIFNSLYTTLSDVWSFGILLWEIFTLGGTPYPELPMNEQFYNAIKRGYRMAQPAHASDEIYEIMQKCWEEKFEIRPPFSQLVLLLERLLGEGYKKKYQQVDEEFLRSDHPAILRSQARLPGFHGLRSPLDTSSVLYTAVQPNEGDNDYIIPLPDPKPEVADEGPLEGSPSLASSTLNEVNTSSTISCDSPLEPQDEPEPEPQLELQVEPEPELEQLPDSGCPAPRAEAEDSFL

Row | inhibition at 10 µM (PDGF-R kinase activity) [%] | IC50 [1] [µM] | IC50 [2] [µM] | Structure (SMILES)
1 | 100 | 0.0791 |  | COc1cc2c(cc1OC)-c1n[nH]c(NCc3cccc(Cl)c3)c1C2 [Compound 424, (3-Chloro-benzyl)-(6,7-dimethoxy-2,4-dihydro-indeno[1,2-c]pyrazol-3-yl)-amine]
2 | 99 | 0.00215 |  | CCOc1cc2c(cc1OCC(O)CN1CCCC1)-c1n[nH]c(Nc3cccc(OC)c3)c1C2 (stereo not drawn) [Compound 462, 1-[6-Ethoxy-3-(3-methoxy-phenylamino)-2,4-dihydro-indeno[1,2-c]pyrazol-7-yloxy]-3-pyrrolidin-1-yl-propan-2-ol]
3 | 82 |  | 1.1 | COc1cc2c(cc1OC)-c1n[nH]c(Nc3ccc(Br)cn3)c1C2 [Compound 583, (5-Bromo-pyridin-2-yl)-(6,7-dimethoxy-2,4-dihydro-indeno[1,2-c]pyrazol-3-yl)-amine]
4 | 82.5 | 0.214 |  | COc1cc2c(cc1OC)C(C)c1c(Nc3cccc(Br)c3)nn(C(=O)OCCOCCOCCO)c1-2 (stereo not drawn) [Compound 548, 3-(3-Bromo-phenylamino)-6,7-dimethoxy-4-methyl-4H-indeno[1,2-c]pyrazole-1-carboxylic acid 2-[2-(2-hydroxy-ethoxy)-ethoxy]-ethyl ester]
5 | 100 | 0.0653 |  | COc1cc2c(cc1OC)-c1c(c(Nc3cccc(F)c3)nn1C(=O)NCCN1CCCC1)C2 [Compound 520, 3-(3-Fluoro-phenylamino)-6,7-dimethoxy-4H-indeno[1,2-c]pyrazole-1-carboxylic acid (2-pyrrolidin-1-yl-ethyl)-amide]
6 | 91.5 | 0.0634 |  | COc1cc2c(cc1OC)-c1c(c(Nc3cccc(F)c3)nn1C(=O)COC(=O)C(C)C)C2 [Compound 474, Isobutyric acid 2-[3-(3-fluoro-phenylamino)-6,7-dimethoxy-4H-indeno[1,2-c]pyrazol-1-yl]-2-oxo-ethyl ester]
7 | 51 | 12.5 |  | CCOC(=O)Cn1nc(Nc2cccc(F)c2)c2c1-c1cc(OC)c(OC)cc1C2 [Compound 511, [3-(3-Fluoro-phenylamino)-6,7-dimethoxy-4H-indeno[1,2-c]pyrazol-1-yl]-acetic acid ethyl ester]
8 | 99.5 |  | 0.00213 | COc1cc2c(cc1OC)-c1n[nH]c(NCc3ccccc3Br)c1C2 [Compound 575, (2-Bromo-benzyl)-(6,7-dimethoxy-2,4-dihydro-indeno[1,2-c]pyrazol-3-yl)-amine]
9 | 99.5 | 0.886 |  | COc1cc2c(cc1OC)-c1n[nH]c(NCc3cccnc3)c1C2 [Compound 564, (6,7-Dimethoxy-2,4-dihydro-indeno[1,2-c]pyrazol-3-yl)-pyridin-3-ylmethyl-amine]
10 | 103 | 0.0451 |  | COc1cc2c(cc1OC)-c1nn(C(=O)Oc3ccc(F)cc3)c(Nc3cccc(F)c3)c1C2 [Compound 503, 3-(3-Fluoro-phenylamino)-6,7-dimethoxy-4H-indeno[1,2-c]pyrazole-2-carboxylic acid 4-fluoro-phenyl ester]

The remaining lines, values behind:

Row | Structure (SMILES) | inhibition at 10 µM (PDGF-R kinase activity) [%] | IC50 [1] [µM] | IC50 [2] [µM]
11 | COc1ccc2c(c1)Cc1c-2n[nH]c1Nc1ccc(OC(F)(F)F)cc1 [Compound 88, (6-Methoxy-2,4-dihydro-indeno[1,2-c]pyrazol-3-yl)-(4-trifluoromethoxy-phenyl)-amine] | 42 | 20.8 | 
12 | COCCCOc1ccc2c(c1)Cc1c-2n[nH]c1Nc1cccc(Cl)c1 [Compound 135, (3-Chloro-phenyl)-[6-(3-methoxy-propoxy)-2,4-dihydro-indeno[1,2-c]pyrazol-3-yl]-amine] | 87 | 0.202 | 
13 | COc1cc2c(cc1OC)-c1n[nH]c(Nc3ccc(S(=O)(=O)C4CCNCC4)cc3)c1C2 [Compound 221, (6,7-Dimethoxy-2,4-dihydro-indeno[1,2-c]pyrazol-3-yl)-[4-(piperidine-4-sulfonyl)-phenyl]-amine] | 71 | 1.6 | 
14 | COc1cc2c(cc1OC)-c1n[nH]c(NCc3ccccc3C(F)(F)F)c1C2 [Compound 329, (6,7-Dimethoxy-2,4-dihydro-indeno[1,2-c]pyrazol-3-yl)-(2-trifluoromethyl-benzyl)-amine] | 58 | 0.0762 | 
15 | CN1CCN(c2ccc3c(c2)Cc2c-3n[nH]c2Nc2ccccc2)CC1 [Compound 64, [6-(4-Methyl-piperazin-1-yl)-2,4-dihydro-indeno[1,2-c]pyrazol-3-yl]-phenyl-amine] | 118 | 0.449 | 
16 | Brc1ccc2c(c1)Cc1c-2n[nH]c1Nc1ccccc1 [Compound 158, (6-Bromo-2,4-dihydro-indeno[1,2-c]pyrazol-3-yl)-phenyl-amine] | 87.5 | 0.186 | 
17 | COc1cc2c(cc1OCC(O)CN1CCCC1)Cc1c-2n[nH]c1NCc1ccccc1F (stereo not drawn) [Compound 397, 1-[3-(2-Fluoro-benzylamino)-7-methoxy-2,4-dihydro-indeno[1,2-c]pyrazol-6-yloxy]-3-pyrrolidin-1-yl-propan-2-ol] | 92 | 0.0077 | 
18 | CN(C)CCCOc1ccc2c(c1)Cc1c-2n[nH]c1Nc1cc(F)ccc1F [Compound 163, (2,5-Difluoro-phenyl)-[6-(3-dimethylamino-propoxy)-2,4-dihydro-indeno[1,2-c]pyrazol-3-yl]-amine] | 32 | 22.7 | 
19 | Brc1ccc2c(c1)Cc1c-2n[nH]c1Nc1cccnc1 [Compound 152, (6-Bromo-2,4-dihydro-indeno[1,2-c]pyrazol-3-yl)-pyridin-3-yl-amine] | 80 | 0.174 | 
20 | Fc1cccc(Nc2[nH]nc3c2Cc2c(OCCCN4CCOCC4)cccc2-3)c1 [Compound 393, (3-Fluoro-phenyl)-[5-(3-morpholin-4-yl-propoxy)-2,4-dihydro-indeno[1,2-c]pyrazol-3-yl]-amine] | 94.5 | 0.174 | 
21 | COc1ccc2c(c1)-c1n[nH]c(Nc3cc(F)ccc3F)c1C2 [Compound 176, (2,5-Difluoro-phenyl)-(7-methoxy-2,4-dihydro-indeno[1,2-c]pyrazol-3-yl)-amine] | 46.5 | 0.318 | 
22 | CCOc1cc2c(cc1OCC)-c1n[nH]c(Nc3cccc(OC)c3)c1C2 [Compound 245, (6,7-Diethoxy-2,4-dihydro-indeno[1,2-c]pyrazol-3-yl)-(3-methoxy-phenyl)-amine] | 87 | 0.001 | 
23 | Cc1ccccc1CNc1[nH]nc2c1Cc1cc(F)ccc1-2 [Compound 378, (6-Fluoro-2,4-dihydro-indeno[1,2-c]pyrazol-3-yl)-(2-methyl-benzyl)-amine] | 94.5 | 0.467 | 
24 | COc1cc2c(cc1OC)-c1n[nH]c(Nc3cc(C(F)(F)F)cc(C(F)(F)F)c3)c1C2 [Compound 70, (3,5-Bis-trifluoromethyl-phenyl)-(6,7-dimethoxy-2,4-dihydro-indeno[1,2-c]pyrazol-3-yl)-amine] | 41.5 | 16.8 | 
25 | COc1cc2c(cc1OC)C(c1ccccc1)c1c-2n[nH]c1Nc1ccccc1 (stereo not drawn) [Compound 300, (6,7-Dimethoxy-4-phenyl-2,4-dihydro-indeno[1,2-c]pyrazol-3-yl)-phenyl-amine] | 40 |  | 
26 | COC(=O)c1cccc(Nc2[nH]nc3c2Cc2cc(N)ccc2-3)c1 [Compound 120, 3-(6-Amino-2,4-dihydro-indeno[1,2-c]pyrazol-3-ylamino)-benzoic acid methyl ester] | 87 | 0.308 | 
27 | COc1ccc(Nc2[nH]nc3c2Cc2cc(OC)c(OC)cc2-3)cc1Cl [Compound 277, (3-Chloro-4-methoxy-phenyl)-(6,7-dimethoxy-2,4-dihydro-indeno[1,2-c]pyrazol-3-yl)-amine] | 88 | 1.36 | 
28 | CN(C)CCCOc1cccc2c1Cc1c-2n[nH]c1Nc1ccccc1 [Compound 71, [5-(3-Dimethylamino-propoxy)-2,4-dihydro-indeno[1,2-c]pyrazol-3-yl]-phenyl-amine] | 110 | 0.185 | 
29 | Fc1ccc(F)c(Nc2[nH]nc3c2Cc2cc(Br)ccc2-3)c1 [Compound 153, (6-Bromo-2,4-dihydro-indeno[1,2-c]pyrazol-3-yl)-(2,5-difluoro-phenyl)-amine] | 79 | 1.03 | 
